Laboratory results as given in patent publication US5314920A, “Ethynyl-alanine aryl/alkylsulfonyl-terminated amino-diol compounds for treatment of hypertension” (G. D. Searle & Co., priority 1992, dated 1994).
Non-standard residues stand in square brackets, D forms with d. Residues, ends and D or L forms follow the SMILES beside them. *: point of attachment. Sta = CC(C)C[C@H](N)[C@@H](O)CC(=O)O; Isovaleryl = CC(C)CC(=O)*

Key:
human renin = target: T1, human renin (Homo sapiens, UniProt P00797); assay: Human Renin Inhibition in vitro; type: biochemical; conditions: pH 7.4, 37° C., two hours, human plasma, angiotensin I by radioimmunoassay
T1 construct: purchased National Institute for Biological Standards, London
T1 sequence (P00797 67-406): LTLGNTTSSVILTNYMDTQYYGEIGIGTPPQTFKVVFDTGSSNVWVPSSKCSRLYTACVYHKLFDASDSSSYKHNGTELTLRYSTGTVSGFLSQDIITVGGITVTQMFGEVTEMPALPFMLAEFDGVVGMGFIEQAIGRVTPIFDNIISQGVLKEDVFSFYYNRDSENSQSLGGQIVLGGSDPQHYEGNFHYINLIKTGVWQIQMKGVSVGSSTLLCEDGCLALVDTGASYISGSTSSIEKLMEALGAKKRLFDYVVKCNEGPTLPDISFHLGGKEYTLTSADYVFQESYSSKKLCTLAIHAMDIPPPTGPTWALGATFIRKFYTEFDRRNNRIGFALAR
Method: Compounds of Formula I were evaluated as inhibitors of human renin in an vitro assay, as follows: This human renin inhibition test has been previously described in detail [Papaioannou et al., Clinical and Experimental Hypertension, A7 (9), 1243-1257 (1985)]. Human renin was obtained from the National Institute for Biological Standards, London. An incubation mixture was prepared containing the following components: in a total volume of 0.25 mL: 100 mM Tris-acetate buffer at pH 7.4, 25×10^-6 Goldblatt units of renin, 0.05 mL of plasma from human volunteers taking oral contraceptives, 6.0 mM Na-EDTA, 2.4 mM phenylmethyl sulfonyl fluoride, 1.5 mM 8-hydroxyquinoline, 0.4 mg/mL bovine serum albumin (BSA), and 0.024 mg/mL neomycin sulfate. This mixture was incubated for two hours at 37° C. in the presence or absence of renin inhibitors. The produced angiotensin I was determined by radioimmunoassay (New England Nuclear kit). Test compounds to be assayed were dissolved in DMSO and diluted with 100 mM Tris-acetate buffer at pH 7.4 containing 0.5% BSA to the appropriate concentration. The final concentration of organic solvent in the reaction mixture was less than 1%. Control incubations at 37° C. were used to correct for effects of organic solvent on renin activity.

hog renin = conditions: after the injection of hog renin into nephrectomized rats; Gross et al, Science, 175, 656 (1971); cited from earlier work
pepsin = conditions: Umezawa et al, J. Antibiot. (Tokyo), 23, 259-262 (1970); cited from earlier work
cathepsin D = conditions: Umezawa et al, J. Antibiot. (Tokyo), 23, 259-262 (1970); cited from earlier work
renin = conditions: Umezawa et al, J. Antibiot. (Tokyo), 23, 259-262 (1970); cited from earlier work

With `C#CC[C@H](NC(=O)C(Cc1ccccc1)CS(=O)(=O)C(C)(C)C)C(=O)N[C@@H](CC1CCCCC1)[C@@H](O)[C@@H](O)CC(C)C` (stereo partly drawn) [Example 1, N-[[1R*-[[1S,1R*(cyclohexylmethyl)-2S*,3R*-dihydroxy-5-methylhexyl]amino]carbonyl]-3-butynyl]-α-[[(1,1-dimethylethyl)sulfonyl]methyl]benzenepropanamide] the IC50 (human renin) was 0.23 nM.
`C#CC[C@H](NC(=O)CCS(=O)(=O)c1ccccc1)C(=O)N[C@@H](CC1CCCCC1)[C@@H](O)[C@@H](O)CC(C)C` [Example 3, N-[1S,1R*(cyclohexylmethyl)-2S*,3R*-dihydroxy-5-methylhexyl]-2R*-[[1-oxo-3-[phenylsulfonyl]propyl]amino]-4-pentynamide] showed an inhibition at 0.1 µM (human renin; @ 100 nM) of 34%.
Work on `C#CC[C@H](NC(=O)[C@H](Cc1ccccc1)CS(=O)(=O)C(C)(C)C)C(=O)N[C@@H](CC1CCCCC1)[C@@H](O)[C@@H](O)CC(C)C` [Example 2, N-[[1R*-[[1S,1R*(cyclohexylmethyl)-2S*,3R*-dihydroxy-5-methylhexyl]amino]carbonyl]-3-butynyl]-αR*-[[(1,1-dimethylethyl)sulfonyl]methyl]benzenepropanamide] yielded an IC50 (human renin) of 0.17 nM.
For `CC(C)CC(=O)N[C@H](C(=O)N[C@H](C(=O)N[C@@H](CC(C)C)[C@@H](O)CC(=O)N[C@@H](C)C(=O)N[C@@H](CC(C)C)[C@@H](O)CC(=O)O)C(C)C)C(C)C` [pepstatin] (Isovaleryl-VV[Sta]A[Sta]-OH), the “blood pressure in vivo” value (hog renin) is listed as “reduce blood pressure”, the inhibitor of pepsin (pepsin) is listed as “inhibitor” and the “inhibitor of cathepsin D” value (cathepsin D) is listed as “inhibitor”. For the same molecule, the inhibitor of renin (renin) was “inhibitor”.
